In patent publication US6194408A, “Triazineone compounds for treating diseases due to Sarcocystis, Neospora and Toxoplasma” (Bayer Corporation, priority 1998, dated 2001):
Where “and” joins values, the source holds several entries; their conditions need not be identical. Equal values may be shown once.

Assays:
Assay type in all cases: in vivo
[1] = Serum drug levels after repeated doses of Toltrazuril in horses; design: unit not given here; settings: for Toltrazuril Level (Table 5b) / Toltrazuril Level (Table 5a): per horse; for AVG Toltrazuril Level (Table 5b) / AVG Toltrazuril Level (Table 5a): average
Method: (§1) This experiment was conducted in order to determine whether triazineones such as Toltrazuril can pass the blood-brain barrier. Normal horses were divided into three groups of three horses per group. Group 1 horses received Toltrazuril administered orally as a 5% suspension at a dose level of 2.5 mg/Kg. Group 2 horses received Toltrazuril administered orally as a 5% suspension at a dose level of 5.0 mg/Kg. Group 3 horses received Toltrazuril administered orally as a 5% suspension at a dose level of 7.5 mg/Kg. The dosing was repeated daily for 10 days. Blood samples were drawn at 48, 96 and 240 hours and the concentration of Toltrazuril, Toltrazuril sulfoxide and Ponazuril in the serum was measured. Ten days after the start of the treatment (Day 10), a sample of cerebral spinal fluid was removed from each horse and the concentrations of Toltrazuril, Toltrazuril Sulfoxide and Ponazuril were again measured in these samples. The concentrations of Toltrazuril, Toltrazuril Sulfoxide and Ponazuril in the serum and cerebral spinal fluid are reported in TABLES 5a and 5b.

[2] = Cerebral spinal fluid drug levels / passage of blood-brain barrier after repeated doses of Toltrazuril in horses; settings: for AVG Cerebral Spinal Fluid level (Table 5b) / AVG Cerebral Spinal Fluid level (Table 5a): CSF, average, Day 10
Method: as §1

[3] = Pharmacokinetics of a single oral dose of Toltrazuril in horses (blood levels); settings: horses receiving single oral 10 mg/kg Toltrazuril
Method: A pharmacokinetic study was conducted in horses comparing blood levels of Toltrazuril, Ponazuril and Toltrazuril Sulfoxide at various times post a single dose of Toltrazuril. All horses received a single dose of 10 mg/kg, which was administered orally as a suspension. Blood samples were drawn at the time of treatment (0) and at 0.25, 0.5, 1, 2, 4, 6, 12, 24, 48 and 72 hours post treatment. […] This was an indication that Ponazuril, alone, would produce acceptable blood levels that are envisioned to pass the blood-brain barrier, a characteristic required to treat neurological diseases such as those caused by Sarcocystis neurona, Toxoplasma gondii, Neospora caninum and Neospora heugesi.

Cc1cc(-n2c(=O)[nH]c(=O)n(C)c2=O)ccc1Oc1ccc(SC(F)(F)F)cc1 [Toltrazuril]
Toltrazuril Level (Table 5b) ([1]; 2.5 mg/Kg oral Toltrazuril daily for 10 days, 240 Hrs, 2.5 mg/kg): 2.61 and 2.36 and 4.04 | Toltrazuril Level (Table 5a) ([1]; 2.5 mg/Kg oral daily for 10 days, 96 Hrs, 2.5 mg/kg): 9.85 and 9.09 and 13.1 | Toltrazuril Level (Table 5a) ([1]; 2.5 mg/Kg oral daily for 10 days, 240 Hrs, 2.5 mg/kg): 15.29 and 9.60 and 15.21 | Toltrazuril Level (Table 5b) ([1]; 5.0 mg/Kg oral Toltrazuril daily for 10 days, 48 Hrs, 5 mg/kg): 0.48 and 0.63 | Toltrazuril Level (Table 5b) ([1]; 5.0 mg/Kg oral Toltrazuril daily for 10 days, 96 Hrs, 5 mg/kg): 2.09 and 2.03 and 2.66 | Toltrazuril Level (Table 5a) ([1]; 5.0 mg/Kg oral daily for 10 days, 48 Hrs, 5 mg/kg): 7.28 and 9.18 and 9.26 | Toltrazuril Level (Table 5a) ([1]; 5.0 mg/Kg oral daily for 10 days, 96 Hrs, 5 mg/kg): 14.17 and 14.03 and 18.19 | Toltrazuril Level (Table 5a) ([1]; 5.0 mg/Kg oral daily for 10 days, 240 Hrs, 5 mg/kg): 24.92 and 16.54 and 17.59 | Toltrazuril Level (Table 5b) ([1]; 7.5 mg/Kg oral Toltrazuril daily for 10 days, 96 Hrs, 7.5 mg/kg): 2.69 and 2.89 and 3.09 | Toltrazuril Level (Table 5b) ([1]; 7.5 mg/Kg oral Toltrazuril daily for 10 days, 240 Hrs, 7.5 mg/kg): 6.31 and 6.37 and 7.06 | Toltrazuril Level (Table 5a) ([1]; 7.5 mg/Kg oral daily for 10 days, 48 Hrs, 7.5 mg/kg): 9.90 and 10.46 | Toltrazuril Level (Table 5a) ([1]; 7.5 mg/Kg oral daily for 10 days, 96 Hrs, 7.5 mg/kg): 27.74 and 19.55 and 18.47 | Toltrazuril Level (Table 5a) ([1]; 7.5 mg/Kg oral daily for 10 days, 240 Hrs, 7.5 mg/kg): 30.08 and 24.15 and 23.53 | AVG Toltrazuril Level (Table 5b) ([1]; 2.5 mg/Kg oral Toltrazuril daily for 10 days, 48 Hrs): 1.41 | AVG Toltrazuril Level (Table 5b) ([1]; 2.5 mg/Kg oral Toltrazuril daily for 10 days, 96 Hrs): 1.76 | AVG Toltrazuril Level (Table 5b) ([1]; 2.5 mg/Kg oral Toltrazuril daily for 10 days, 240 Hrs): 3.00 | AVG Toltrazuril Level (Table 5a) ([1]; 2.5 mg/Kg oral daily for 10 days, 48 Hrs): 6.70 | AVG Toltrazuril Level (Table 5a) ([1]; 2.5 mg/Kg oral daily for 10 days, 96 Hrs): 10.68 | AVG Toltrazuril Level (Table 5a) ([1]; 2.5 mg/Kg oral daily for 10 days, 240 Hrs): 13.37 | AVG Toltrazuril Level (Table 5b) ([1]; 5.0 mg/Kg oral Toltrazuril daily for 10 days, 48 Hrs): 0.53 | AVG Toltrazuril Level (Table 5b) ([1]; 5.0 mg/Kg oral Toltrazuril daily for 10 days, 96 Hrs): 2.26 | AVG Toltrazuril Level (Table 5b) ([1]; 5.0 mg/Kg oral Toltrazuril daily for 10 days, 240 Hrs): 5.02 | AVG Toltrazuril Level (Table 5a) ([1]; 5.0 mg/Kg oral daily for 10 days, 48 Hrs): 8.57 | AVG Toltrazuril Level (Table 5a) ([1]; 5.0 mg/Kg oral daily for 10 days, 96 Hrs): 15.46 | AVG Toltrazuril Level (Table 5a) ([1]; 5.0 mg/Kg oral daily for 10 days, 240 Hrs): 19.68 | AVG Toltrazuril Level (Table 5b) ([1]; 7.5 mg/Kg oral Toltrazuril daily for 10 days, 48 Hrs): 2.55 | AVG Toltrazuril Level (Table 5b) ([1]; 7.5 mg/Kg oral Toltrazuril daily for 10 days, 96 Hrs): 2.89 | AVG Toltrazuril Level (Table 5b) ([1]; 7.5 mg/Kg oral Toltrazuril daily for 10 days, 240 Hrs): 6.58 | AVG Toltrazuril Level (Table 5a) ([1]; 7.5 mg/Kg oral daily for 10 days, 48 Hrs): 10.18 | AVG Toltrazuril Level (Table 5a) ([1]; 7.5 mg/Kg oral daily for 10 days, 96 Hrs): 21.92 | AVG Toltrazuril Level (Table 5a) ([1]; 7.5 mg/Kg oral daily for 10 days, 240 Hrs): 25.95 | AVG Cerebral Spinal Fluid level (Table 5b) ([2]; 2.5 mg/Kg oral Toltrazuril daily for 10 days): 0.09 | AVG Cerebral Spinal Fluid level (Table 5a) ([2]; 2.5 mg/Kg oral daily for 10 days): 0.15 | AVG Cerebral Spinal Fluid level (Table 5b) ([2]; 5.0 mg/Kg oral Toltrazuril daily for 10 days): 0.16 | AVG Cerebral Spinal Fluid level (Table 5a) ([2]; 5.0 mg/Kg oral daily for 10 days): 0.19 | AVG Cerebral Spinal Fluid level (Table 5b) ([2]; 7.5 mg/Kg oral Toltrazuril daily for 10 days): 0.22 | AVG Cerebral Spinal Fluid level (Table 5a) ([2]; 7.5 mg/Kg oral daily for 10 days): 0.39 | Crossing of the blood-brain barrier ([2]; horses, after oral Toltrazuril daily for 10 days): effectively cross the blood-brain barrier

Cc1cc(-n2c(=O)[nH]c(=O)n(C)c2=O)ccc1Oc1ccc([S+]([O-])C(F)(F)F)cc1 (stereo not drawn) [Toltrazuril Sulfoxide]
Levels in serum / bloodstream (in words) [3]: significant levels
